Assay results taken from US12649980B2, “Three-dimensional surface for protein and small molecule microarrays” (The Johns Hopkins University, priority 2019, dated 2026).

What was measured:
HCC1954 = assay: [3H]-2DG uptake assay in HCC1954 cells; assay type: cell-based, human
Experimental: (§1) Hay, Nat. Rev. […] To determine whether RgA could inhibit glucose uptake in cancer cell lines in addition to A549, the impact of RgA on [3H]-2DG uptake in six other cancer cell lines, including HCC1954, MCF-7, PANC10.05, Jurkat T, HeLa, and RKO was measured (FIG. 3A, Table 3).
(§2) The inhibitory activity of compounds on glucose transport was analyzed by measuring the cell uptake of [3H]-2DG as previously described. Ulanovskaya et al., Chem. Biol. 2011, 18, 222-230. Briefly, cells were washed twice and incubated in low-glucose medium for 10 min. Cells were added drugs and incubated for another 10 min before adding [3H]-2DG. After 10 min incubation with [3H]-2DG, cells were washed twice and lysed with 0.2 N NaOH plus 0.2% SDS. The cell lysate was transferred to a new tube containing 1 mL of optiphase supermix. Glucose uptake was quantified with a scintillation counter.

Jurkat T = assay: [3H]-2DG uptake assay in Jurkat T cells; assay type: cell-based, human
Experimental: as §1, §2

RKO = assay: Alamar blue cell proliferation assay, RKO; assay type: cell-based, human; conditions: 72 h, read-out: IC50 Assay B (Alamar blue cell proliferation)
Experimental: (§3) The effects of RgA on cell growth, survival, and cell death was then determined. […] Treatment with 5 μM of RgA caused an increase in G1 phase by approximately 23% in comparison to control and approximately 7% and 17% decreases in cells in S and G2/M phases, respectively. The induction in G1 phase cell cycle arrest by RgA is dose-dependent (FIG. 5A, FIG. 16). […] Jones and Thompson, Genes Dev. 2009, 23, 537-548. […] The IC50 values of RgA against several human cancer cell lines also was determined using the alamar blue cell proliferation assay.
Cells were seeded into a 96-well plate (Costar) in 180 μL culture media. After an overnight recovery, drugs were added and incubated for 72 h. After drug incubation, cells were added with 20 μL of alamar blue reagent and the plates were incubated at 37° C. for 6 h before reading the fluorescence (544 nm Ex/590 nm Em) with a plate reader. GraphPad Prism (v4.03) software was used to determine IC50 values using a four parameter logistic regression.

AMPK and mTOR activity = assay: Western blot of AMPK and mTOR (S6K) activity in MCF-7 cells; assay type: cell-based, human; conditions: MCF-7, time- and dose-dependent
From the text: The increase in AMP/ATP ratio, in turn, is expected to activate AMPK, leading to the inhibition of the mTOR signaling pathway. Liu et al., Mol. Cancer Ther. 2012, 11, 1672-1682; Head et al., ACS Chem. Biol. 2017, 12, 174-182. The effect of RgA on AMPK and mTOR activity in MCF-7 cells was therefore determined.
(§4) For western blot analysis, cells were harvested and lysed by RIPA buffer plus protease inhibitor. Cell lysates or samples from pull-down experiment were subjected to SDS/PAGE and then transferred to a nitrocellulose membrane. Membranes were first blocked in 5% (wt/vol) BSA in Tris-buffered saline plus 0.1% Tween 20 (TBST) at room temperature for 30 min and incubated with primary antibodies at 4° C. for overnight. Membranes were then washed three times with TBST and incubated with secondary antibodies at room temperature for another 1 h. Membranes were washed with TBST three times again and incubated with ECL substrate for 1 min at room temperature. Pictures were captured using a GeneSys Image Station.

MCF-7 cells = assay: cell cycle analysis of MCF-7 cells; assay type: cell-based, human; conditions: MCF-7, 5 μM, 24 h
Experimental: as §3
MCF-7 cells were seeded at 5×10^5 cells/15 cm dish, allowed to recover overnight and subsequently treated with drugs or vehicle control for 24 h. Media was then collected and set aside. Cells were washed with PBS, trypsinized, combined with set aside media, pelleted at 500×g and then washed with 10 mL PBS followed by another 500×g spin. The pellet was resuspended in 0.5 mL PBS and added dropwise using a Pasteur pipette to 2 mL 75% ethanol in a 5 mL polystyrene tube being slowly agitated by a vortex. The cells were stored at 4° C. until staining. To do so, cells were pelleted at 500×g, resuspended in 5 mL PBS, rested for 60 seconds, pelleted again and washed by 5 mL PBS. The cell pellet was then resuspended in 0.5 mL staining solution (0.1% Triton-X-100, 0.2 mg/mL DNase free RNase A, and 0.02 mg/mL propidium iodide). Cells were allowed to stain for 30 min prior for analysis. Propidium iodide incorporation was measured using a FACSCalibur. The percentage of cells in each cell cycle stage was determined with FlowJo (v7.5.5) using a Watson analysis.

PARP and caspase 7 = assay: Western blot of apoptosis markers in MCF-7 cells; assay type: cell-based, human; conditions: MCF-7, 5 μM, 72 h; inhibited by Z-VAD
Experimental: as §3, §4

MCF-7 tumors = assay: MCF-7 breast cancer xenograft in NSG mice; assay type: in vivo
Experimental: Given that RgA inhibited multiple isoforms of GLUTs, including GLUT1, 3, and 4, it raised the question of whether animals could tolerate RgA. As breast cancer cell lines are more sensitive to RgA than other cell lines (FIG. 6A and Table 3), the anti-breast cancer activity of RgA in vivo was assessed. Two breast cancer cell lines were selected for the xenograft experiment-MCF-7, an ER+, HER2− line, and HCC1954, an ER−, HER2+ breast line. NSG mice bearing MCF-7 tumors were given daily vehicle or RgA at a dose of 2 mg/kg for […].
All animal studies were conducted in compliance with all relevant ethical regulations set forth by the Johns Hopkins University Animal Care and Use Committee (ACUC). Female mice aged 4-6 weeks and weighing 18-22 g were maintained in a pathogen-free facility at Johns Hopkins Medical Institutions and cared for according to National Institutes of Health guidelines and under a protocol approved by the Johns Hopkins University Animal Care Committee. For the xenograft experiment of MCF-7, 17β-estradiol pellets (0.72 mg per pellet, 60-day release, Innovative Research of America, FL) were implanted at 5 days prior to tumor cell injection. Approximately 5 million MCF-7 cells were implanted subcutaneously into NSG mice (n=6 per group, NSG, The Jackson Laboratory). For the xenograft experiment of HCC1954, approximately 2 million cells were implanted subcutaneously into athymic nude mice (n=6 per group, NCr-nu/nu, Charles River). After tumors became palpable, the mice bearing MCF-7 and HCC1954 tumors were treated with either vehicle (saline with 5% PEG400, 5% Tween80 and 5% DMSO) or RgA via intraperitoneal injection every day. The tumor volume was measured periodically using a Vernier caliper and calculated according to the modified ellipsoid formula: tumor volume (mm^3)=(short axis)^2×(long axis)×π/6. After 30 days of treatment, the mice were killed, and the tumor tissues were extracted and stored in 10% formalin solution for future use.

CCC(C)C1C(=O)NCC(=O)N(C)CCC=CC(=O)OCC(C)(C)C(=O)C(=O)N2CCCCC2C(=O)OC(CCc2ccc(OC)c(OC)c2)c2cccc(c2)NC(=O)CCC(=O)N(C)C(CC(C)C)C(=O)NC(Cc2ccccc2)C(=O)N1C (stereo not drawn) [JW11-D2, Rapaglutin A]
IC50 (HCC1954): 8.3 nM | IC50 (Jurkat T): 10.1 nM | IC50 (RKO): 114 nM | AMPK activity (AMPK and mTOR activity): activated AMPK | mTOR activity (AMPK and mTOR activity): inhibited mTOR activity | decrease in cells in G2/M phase (MCF-7 cells): ~17% | decrease in cells in S phase (MCF-7 cells): approximately 7% | increase in G1 phase in comparison to control (MCF-7 cells): approximately 23% | PARP and caspase 7 cleavage (apoptosis) (PARP and caspase 7): resulted in poly(ADP-ribose) polymerase (PARP) and caspase 7 cleavage | tumor weight (MCF-7 tumors; MCF-7 in NSG mice, 2 mg/kg daily, vehicle 454 mg): 285 mg | tumor volume index on day 38 (MCF-7 tumors; MCF-7 in NSG mice, 2 mg/kg intraperitoneally daily, vehicle 2.84): 1.70 | weight loss and signs of adverse effects (MCF-7 tumors; MCF-7 xenograft mice, 2 mg/kg daily): no significant weight loss or any signs of adverse effects
